Values of other authors as cited in US8642581B1, “Compositions and methods for the production of S-adenosylmethionine within the body” (priority 2000, dated 2014).

How the values were obtained:
[1] = system: brain membrane; conditions: rats, chronic administration
[2] = system: beta-adrenergic binding sites; conditions: rats, chronic administration
[3] = 35° C. (95° F.)
[4] = system: Depressive symptoms; conditions: 195 patients, 400 mg SAMe parenterally for 15 days

time SAMe remains stable [3]: 8 to 10 h
Compound: C[S+](CC[C@H](N)C(=O)O)C[C@H]1O[C@@H](n2cnc3c(N)ncnc32)[C@H](O)[C@@H]1O (some centres unmarked) [SAMe, S-adenosylmethionine]
age-related decrease of brain membrane fluidity [1]: prevents | age-related decrease in beta-adrenergic binding sites [2]: prevents | serious adverse events [4]: no serious adverse events were reported | Depressive symptoms ([4]; after 7 and 15 days): remitted after both 7 and 15 days
